Measurements taken from patent publication US4740502A, “Semisynthetic erythromycin antibiotics” (Abbott Laboratories, priority 1986, dated 1988).
≈ marks a conversion by molar mass, not a printed value.

Columns and labels:
[1] = tested on: stomach, duodenum and jejunum; experiment: Gastrointestinal motility (stimulating activity) in a dog model, strain gauges
Experimental: Contractions in the gut were recorded with surgically implanted strain gauges. The contractile scores were determined according to the method of Jacoby, et al., as described in "Gastrointestinal Actions of Metoclopramide," Gastroenterology, Vol. 52, No. 4 (1967), pp. 676-684 by giving a numerical score to the height of each recorded contraction in the one hour period after administration of the test compound. […] Ratios were calculated for the stomach, duodenum and jejunum, and a final arithmetic mean index was calculated and reported in Table I.

[2] = tested on: E. coli SS; experiment: Agar dilution MIC, E. coli SS; conditions: Escherichia coli, 22 h
[3] = tested on: E. coli JUHL; experiment: Agar dilution MIC, E. coli JUHL; conditions: Escherichia coli, 22 h
[4] = tested on: E. coli DC-2; experiment: Agar dilution MIC, E. coli DC-2; conditions: Escherichia coli, DC2, 22 h
[5] = tested on: E. coli H560; experiment: Agar dilution MIC, E. coli H560; conditions: Escherichia coli, H560, 22 h
[6] = tested on: E. coli KNK 437; experiment: Agar dilution MIC, E. coli KNK 437; conditions: Escherichia coli, KNK437, 22 h
[7] = tested on: Strep. bovis A5169; experiment: Agar dilution MIC, Strep. bovis A5169; conditions: Streptococcus equinus, A5169, 22 h
[8] = tested on: Staph. aureus A5177; experiment: Agar dilution MIC, Staph. aureus A5177; conditions: Staphylococcus aureus, A5177, 22 h
[9] = tested on: Strep. pyogenes 930; experiment: Agar dilution MIC, Strep. pyogenes 930; conditions: Streptococcus pyogenes, 930, 22 h
[10] = tested on: Strep. pyogenes EES61; experiment: Agar dilution MIC, Strep. pyogenes EES61; conditions: Streptococcus pyogenes, EES61, 22 h
[11] = tested on: Staph. aureus CMX 686B; experiment: Agar dilution MIC, Staph. aureus CMX 686B; conditions: Staphylococcus aureus, CMX686B, 22 h
[12] = tested on: Staph. epidermidis 3519; experiment: Agar dilution MIC, Staph. epidermidis 3519; conditions: Staphylococcus epidermidis, 3519, 22 h
[13] = tested on: Micrococcus luteus 9341; experiment: Agar dilution MIC, Micrococcus luteus 9341; conditions: Micrococcus luteus, 9341, 22 h
[14] = tested on: Micrococcus luteus 4698; experiment: Agar dilution MIC, Micrococcus luteus 4698; conditions: Micrococcus luteus, 4698, 22 h
[15] = tested on: Staph. aureus ATCC 6538P; experiment: Agar dilution MIC, Staph. aureus ATCC 6538P; conditions: Staphylococcus aureus, ATCC6538P, 22 h
[16] = tested on: Strep. faecium ATCC 8043; experiment: Agar dilution MIC, Strep. faecium ATCC 8043; conditions: Enterococcus faecium, ATCC8043, 22 h
[17] = tested on: Pseudomonas cepacia 2961; experiment: Agar dilution MIC, Pseudomonas cepacia 2961; conditions: Burkholderia cepacia, 2961, 22 h
[18] = tested on: Acinetobacter SP CMX 669; experiment: Agar dilution MIC, Acinetobacter SP CMX 669; conditions: SPCMX669, 22 h
[19] = tested on: Strep. agalactiae CMX 508; experiment: Agar dilution MIC, Strep. agalactiae CMX 508; conditions: Streptococcus agalactiae, CMX508, 22 h
[20] = tested on: Ent. aerogenes ATCC 10348; experiment: Agar dilution MIC, Ent. aerogenes ATCC 10348; conditions: Klebsiella aerogenes, ATCC10348, 22 h
[21] = tested on: Klebsiella pneumoniae 8045; experiment: Agar dilution MIC, Klebsiella pneumoniae 8045; conditions: Klebsiella pneumoniae, 8045, 22 h
[22] = tested on: Pseudomonas aeruginosa 5007; experiment: Agar dilution MIC, Pseudomonas aeruginosa 5007; conditions: Pseudomonas aeruginosa, 5007, 22 h
[23] = tested on: Staph. epidermidis 3519 RARI; experiment: Agar dilution MIC, Staph. epidermidis 3519 RARI; conditions: Staphylococcus epidermidis, 22 h
[24] = tested on: Providencia stuartii CMX 640; experiment: Agar dilution MIC, Providencia stuartii CMX 640; conditions: CMX640, 22 h
[25] = tested on: Pseudomonas aeruginosa BMH10; experiment: Agar dilution MIC, Pseudomonas aeruginosa BMH10; conditions: BMH10, 22 h
[26] = tested on: Pseudomonas aeruginosa K799/WT; experiment: Agar dilution MIC, Pseudomonas aeruginosa K799/WT; conditions: 22 h
[27] = tested on: Pseudomonas aeruginosa K799/61; experiment: Agar dilution MIC, Pseudomonas aeruginosa K799/61; conditions: K799/61, 22 h
[28] = 4 mg/kg intravenously, one hour period, mean of stomach, duodenum and jejunum ratios to erythromycin A lactobionate

Structure (SMILES): CC[C@H]1OC(=O)[C@H](C)[C@@H](O[C@H]2C[C@@](C)(OC)[C@@H](O)[C@H](C)O2)[C@H](C)[C@@H](O[C@@H]2O[C@H](C)C[C@H](N(C)C)[C@H]2O)[C@](C)(O)C[C@@H](C)C(=O)[C@H](C)[C@@H](O)[C@]1(C)O [erythromycin A lactobionate]
- stimulation of the gastrointestinal tissues ([1]; in vivo, iv, 4 mg/kg): pronounced stimulation of the stomach, duodenum, jejunum and ileum

Structure (SMILES): CC[C@H]1OC(=O)[C@H](C)[C@@H](O[C@H]2C[C@@](C)(OC)[C@@H](O)[C@H](C)O2)[C@H](C)[C@@H](O[C@@H]2O[C@H](C)C[C@H](N(C)C)[C@H]2O)[C@](C)(OC)C[C@@H](C)C(=O)[C@H](C)[C@@H](O)[C@]1(C)O [6-O--Me--Ery A, 6-O-methyl erythromycin A]
- Gastrointestinal Motility Index ([1]; in vivo, iv, 4 mg/kg): 0.37
- stimulation of the gastrointestinal tissues ([1]; in vivo, iv, 4 mg/kg): less of a gastrointestinal response

Structure (SMILES): CC[C@H]1OC(=O)[C@H](C)[C@@H](O[C@H]2C[C@@](C)(OC)[C@@H](OC(N)=O)[C@H](C)O2)[C@H](C)[C@@H](O[C@@H]2O[C@H](C)C[C@H](N(C)C)[C@H]2O)[C@](C)(O)C[C@@H](C)C(=O)[C@H](C)[C@@H](O)[C@]1(C)O [Example 4, Erythromycin A-4"-carbamate]
- Gastrointestinal Motility Index [1, 28]: 0.11

Structure (SMILES): CC[C@H]1OC(=O)[C@H](C)[C@@H](O[C@H]2C[C@@](C)(OC)[C@@H](O)[C@H](C)O2)[C@H](C)[C@@H](O[C@@H]2O[C@H](C)C[C@H](N(C)C)[C@H]2O)[C@](C)(O)C[C@@H](C)C(=O)[C@H](C)[C@@H](O)[C@H]1C [erythromycin B lactobionate]
- stimulation of the gastrointestinal tissues ([1]; in vivo, iv, 4 mg/kg): pronounced stimulation of the stomach, duodenum, jejunum and ileum

Structure (SMILES): CC[C@H]1OC(=O)[C@H](C)[C@@H](O[C@H]2C[C@@](C)(OC)[C@@H](OC(N)=O)[C@H](C)O2)[C@H](C)[C@@H](O[C@@H]2O[C@H](C)C[C@H](N(C)C)[C@H]2O)[C@](C)(O)C[C@@H](C)C(=O)[C@H](C)[C@@H](O)[C@H]1C [Example 2, Erythromycin B-4"-carbamate]
- Gastrointestinal Motility Index [1, 28]: 0.17

Structure (SMILES): CC[C@H]1OC(=O)[C@H](C)[C@@H](O[C@H]2C[C@@](C)(OC)[C@@H](OC(N)=O)[C@H](C)O2)[C@H](C)[C@@H](O[C@@H]2O[C@H](C)C[C@H](N(C)C)[C@H]2O)[C@](C)(OC)C[C@@H](C)C(=O)[C@H](C)[C@@H](O)[C@]1(C)O [Example 1, 6-O-methyl-erythromycin A-4"-carbamate]
- Gastrointestinal Motility Index [1, 28]: 0.03
- MIC [2]: 0.2 µg/mL (≈ 0.253 µM)
- MIC [3]: 12.5 µg/mL (≈ 15.8 µM)
- MIC [4]: 50 µg/mL (≈ 63.2 µM)
- MIC [5]: 6.2 µg/mL (≈ 7.84 µM)
- MIC [6]: 25 µg/mL (≈ 31.6 µM)
- MIC [7]: 0.02 µg/mL (≈ 0.0253 µM)
- MIC [8]: 0.39 µg/mL (≈ 0.493 µM)
- MIC [9]: > 100 µg/mL
- MIC [10]: 0.01 µg/mL (≈ 0.0126 µM)
- MIC [11]: 0.05 µg/mL (≈ 0.0632 µM)
- MIC [12]: 0.05 µg/mL (≈ 0.0632 µM)
- MIC [13]: 0.02 µg/mL (≈ 0.0253 µM)
- MIC [14]: 0.39 µg/mL (≈ 0.493 µM)
- MIC [15]: 0.02 µg/mL (≈ 0.0253 µM)
- MIC [16]: 0.05 µg/mL (≈ 0.0632 µM)
- MIC [17]: 50 µg/mL (≈ 63.2 µM)
- MIC [18]: 6.2 µg/mL (≈ 7.84 µM)
- MIC [19]: 0.02 µg/mL (≈ 0.0253 µM)
- MIC [20]: 25 µg/mL (≈ 31.6 µM)
- MIC [21]: 50 µg/mL (≈ 63.2 µM)
- MIC [22]: 50 µg/mL (≈ 63.2 µM)
- MIC [23]: 0.1 µg/mL (≈ 0.126 µM)
- MIC [24]: 100 µg/mL (≈ 126 µM)
- MIC [25]: 50 µg/mL (≈ 63.2 µM)
- MIC [26]: 50 µg/mL (≈ 63.2 µM)
- MIC [27]: 1.56 µg/mL (≈ 1.97 µM)

Structure (SMILES): CC[C@H]1OC(=O)[C@H](C)[C@@H](O[C@H]2C[C@@](C)(OC)[C@@H](O)[C@H](C)O2)[C@H](C)[C@@H](O[C@@H]2O[C@H](C)C[C@H](N(C)C)[C@H]2O)[C@](C)(O)C[C@@H](C)C(=O)[C@H](C)[C@@H](O)[C@]1(C)O [Erythromycin A]
- MIC [5]: 6.2 µg/mL (≈ 8.45 µM)
- MIC [9]: > 100 µg/mL
- MIC [12]: 0.1 µg/mL (≈ 0.136 µM)
- MIC [16]: 0.05 µg/mL (≈ 0.0681 µM)
- MIC [18]: 3.1 µg/mL (≈ 4.22 µM)
- MIC [20]: 50 µg/mL (≈ 68.1 µM)
- MIC [22]: > 100 µg/mL
- MIC [24]: > 100 µg/mL
- MIC [26]: 50 µg/mL (≈ 68.1 µM)
- MIC [27]: 1.56 µg/mL (≈ 2.13 µM)

Structure (SMILES): CC[C@H]1OC(=O)[C@H](C)[C@@H](O[C@H]2C[C@@](C)(OC)[C@@H](O)[C@H](C)O2)[C@H](C)[C@@H](O[C@@H]2O[C@H](C)C[C@H](N(C)C)[C@H]2O)[C@](C)(O)C[C@@H](C)C(=O)[C@H](C)[C@@H](O)[C@H]1C [Ery B, erythromycin B]
- Gastrointestinal Motility Index ([1]; in vivo, iv, 4 mg/kg): 2.47
